System: thrombin induced platelet aggregation
Experiment: Thrombin induced platelet aggregation (Chronolog aggregometer)
Type: cell-based
Details: 0.1 U/ml thrombin
Description: Platelets treated with 100 μM WHI-P131 or the parent compound, WHI-P258 (negative control), were stimulated with 0.1 U/ml thrombin or 10 μg/ml collagen. WHI-P131 is described above, WHI-P258 is an unsubstituted quinazoline and structurally shown below.
Platelet aggregation with respect to control was monitored in a Chronolog Model 560 Dual Chamber Platelet Aggregometer. […] WHI-P258 had no effect on the thrombin response (FIG. 1C).
Platelets treated with varying concentrations of WHI-P131 or WHI-P258 (negative control) were stimulated with 0.1 U/ml thrombin. Platelet aggregation with respect to control was monitored in a Chronolog Model 560 Dual Chamber Platelet Aggregometer. […] The results are charted in FIG. 2.

Row | IC50 (Platelet, varying concentrations) | SMILES | effect on thrombin induced platelet aggregation (100 μM)
1 | – | COc1cc2ncnc(Nc3ccccc3)c2cc1OC [WHI-P258, 4-(phenyl)-amino-6,7-dimethoxyquinazoline] | no effect
2 | 1500 nM | COc1cc2ncnc(Nc3ccc(O)cc3)c2cc1OC [WHI-P131, 4-(4′-Hydroxyphenyl)-amino-6,7-dimethoxyquinazoline] | –

From US6635651B2, “Inhibitors of thrombin induced platelet aggregation” (Parker Hughes Institute, priority 1999, dated 2003)
